Test results from ChEMBL document CHEMBL1142886, “Substrate specificity analysis and inhibitor design of homoisocitrate dehydrogenase” (Bioorg Med Chem, 2007).
Activity calls are given as the source filed them. The rule behind the calls is not given here.

Columns and labels:
[1] = target: Homoisocitrate dehydrogenase, mitochondrial (Saccharomyces cerevisiae S288c) (UniProt P40495); test: Activity of recombinant Saccharomyces cerevisiae homoisocitrate dehydrogenase expressed in Escherichia coli Rosetta cells above 10 mM
Chain of Homoisocitrate dehydrogenase, mitochondrial (Saccharomyces cerevisiae S288c) (P40495 whole entry): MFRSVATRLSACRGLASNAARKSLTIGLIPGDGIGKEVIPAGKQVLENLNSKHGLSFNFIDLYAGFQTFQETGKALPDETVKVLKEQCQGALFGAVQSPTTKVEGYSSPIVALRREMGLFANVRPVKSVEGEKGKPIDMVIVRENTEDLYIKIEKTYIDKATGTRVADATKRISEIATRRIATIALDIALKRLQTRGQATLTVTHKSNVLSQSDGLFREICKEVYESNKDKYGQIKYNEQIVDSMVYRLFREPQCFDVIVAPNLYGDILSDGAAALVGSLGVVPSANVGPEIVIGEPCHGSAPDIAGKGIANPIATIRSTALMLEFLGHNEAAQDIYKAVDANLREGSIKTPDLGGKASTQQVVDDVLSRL

Deinococcus radiodurans [2] = test: Activity of Deinococcus radiodurans homoisocitrate dehydrogenase above 10 mM
Deinococcus radiodurans [3] = test: Ratio of kcat/km of Deinococcus radiodurans homoisocitrate dehydrogenase
Deinococcus radiodurans [4] = test: Activity of Deinococcus radiodurans homoisocitrate dehydrogenase

Structure (SMILES)	Activity [1]	Activity (Deinococcus radiodurans [2])	kcat/Km (Deinococcus radiodurans [3]) [M⁻¹ s⁻¹]	Km (Deinococcus radiodurans [4]) [µM]	kcat (Deinococcus radiodurans [4]) [s⁻¹]
O=C(O)C[C@H](C(=O)O)[C@@H](O)C(=O)O	inactive				
O=C(O)CCCC[C@H](C(=O)O)[C@@H](O)C(=O)O			290000	140	40
C=CC[C@H](C(=O)O)[C@@H](O)C(=O)O			13000	2800	37
O=C(O)CCC[C@H](C(=O)O)[C@@H](O)C(=O)O			200000	200	40
O=C(O)C[C@@H](O)C(=O)O	inactive	inactive			
CCC[C@H](C(=O)O)[C@@H](O)C(=O)O			68000	780	53
O=C(O)[C@@H](CCCCO)[C@@H](O)C(=O)O			60000	470	28
O=C(O)[C@@H](CCCO)[C@@H](O)C(=O)O			200000	510	29
CCCCC[C@H](C(=O)O)[C@@H](O)C(=O)O			1200	3200	3.7
NCCC[C@H](C(=O)O)[C@@H](O)C(=O)O	inactive	inactive			
C=CCCC[C@H](C(=O)O)[C@@H](O)C(=O)O			1100	2700	3
O=C(O)[C@H](O)[C@@H](C(=O)O)c1ccccc1	inactive	inactive			

The remaining lines, values ahead:

Activity [1]	Activity (Deinococcus radiodurans [2])	kcat/Km (Deinococcus radiodurans [3]) [M⁻¹ s⁻¹]	Km (Deinococcus radiodurans [4]) [µM]	kcat (Deinococcus radiodurans [4]) [s⁻¹]	Structure (SMILES)
inactive	inactive				O=C(O)[C@@H](O)[C@@H](O)C(=O)O
		430000	1000	43	CC[C@H](C(=O)O)[C@@H](O)C(=O)O
		42000	590	25	O=C(O)[C@@H](CCO)[C@@H](O)C(=O)O
inactive					CC(C)[C@H](C(=O)O)[C@@H](O)C(=O)O
		5300	3600	19	C[C@H](C(=O)O)[C@@H](O)C(=O)O
		9300	83	0.77	C=C[C@H](C(=O)O)[C@@H](O)C(=O)O
